In ChEMBL document CHEMBL1201862, “PubChem BioAssay data set” (2004):
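Test compounds were applied to cells in 96-well plates for 48 hours at 5 doses. GI50 is the concentration that inhibits growth by half.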 The source made the active and inactive calls. Rule as the data show it: active = GI50 up to about 1.1 µM and inactive = higher.

What was measured:
Assay in all cases: NCI-60 cell line screen, 48 h
CCRF-CEM = system: CCRF-CEM
IGROV-1 = system: IGROV-1
RPMI-8226 = system: RPMI-8226
OVCAR-5 = system: OVCAR-5
SK-OV-3 = system: SK-OV-3
SF-295 = system: SF-295
U-251 = system: U-251
786-0 = system: 786-0
SR = system: SR
A549 = system: A549
SK-MEL-2 = system: SK-MEL-2
TK-10 = system: TK-10
NCI-H460 = system: NCI-H460
SNB-19 = system: SNB-19
OVCAR-8 = system: OVCAR-8
MDA-MB-231 = system: MDA-MB-231
LOX IMVI = system: LOX IMVI
UACC-257 = system: UACC-257
DU-145 = system: DU-145
NCI/ADR-RES = system: NCI/ADR-RES
RXF 393 = system: RXF 393
SF-539 = system: SF-539
M14 = system: M14
OVCAR-4 = system: OVCAR-4
SNB-75 = system: SNB-75
UACC-62 = system: UACC-62
SF-268 = system: SF-268
SK-MEL-5 = system: SK-MEL-5
HOP-92 = system: HOP-92
Hs-578T = system: Hs-578T
A498 = system: A498
MCF7 = system: MCF7
SW-620 = system: SW-620
KM12 = system: KM12
EKVX = system: EKVX
HOP-62 = system: HOP-62
Malme-3M = system: Malme-3M
MDA-MB-435 = system: MDA-MB-435
UO-31 = system: UO-31
CAKI-1 = system: CAKI-1
T47D = system: T47D
COLO 205 = system: COLO 205
NCI-H522 = system: NCI-H522
SK-MEL-28 = system: SK-MEL-28
OVCAR-3 = system: OVCAR-3
K562 = system: K562
HT-29 = system: HT-29
HCT-15 = system: HCT-15
PC-3 = system: PC-3
MDA-N = system: MDA-N
NCI-H23 = system: NCI-H23
ACHN = system: ACHN
SN12C = system: SN12C
BT-549 = system: BT-549
HCT-116 = system: HCT-116
MOLT-4 = system: MOLT-4

## Cc1cc(C)c(O)c(Cc2cccc(Cc3cc(C)cc(C)c3O)c2O)c1
CCRF-CEM
  GI50: 35.5 µM (inactive)
IGROV-1
  GI50: > 100 µM (inactive)
RPMI-8226
  GI50: > 100 µM (inactive)
OVCAR-5
  GI50: > 100 µM (inactive)
SK-OV-3
  GI50: > 100 µM (inactive)
SF-295
  GI50: > 100 µM (inactive)
U-251
  GI50: > 100 µM (inactive)
786-0
  GI50: > 100 µM (inactive)
SR
  GI50: 77.6 µM (inactive)
A549
  GI50: > 100 µM (inactive)
SK-MEL-2
  GI50: > 100 µM (inactive)
TK-10
  GI50: > 100 µM (inactive)
NCI-H460
  GI50: > 100 µM (inactive)
SNB-19
  GI50: > 100 µM (inactive)
OVCAR-8
  GI50: > 100 µM (inactive)
MDA-MB-231
  GI50: > 100 µM (inactive)
LOX IMVI
  GI50: > 100 µM (inactive)
UACC-257
  GI50: > 100 µM (inactive)
DU-145
  GI50: > 100 µM (inactive)
NCI/ADR-RES
  GI50: > 100 µM (inactive)
RXF 393
  GI50: > 100 µM (inactive)
SF-539
  GI50: > 100 µM (inactive)
M14
  GI50: > 100 µM (inactive)
OVCAR-4
  GI50: > 100 µM (inactive)
SNB-75
  GI50: > 100 µM (inactive)
UACC-62
  GI50: > 100 µM (inactive)
SF-268
  GI50: > 100 µM (inactive)
SK-MEL-5
  GI50: > 100 µM (inactive)
HOP-92
  GI50: > 100 µM (inactive)
Hs-578T
  GI50: > 100 µM (inactive)
A498
  GI50: > 100 µM (inactive)
MCF7
  GI50: > 100 µM (inactive)
SW-620
  GI50: > 100 µM (inactive)
KM12
  GI50: > 100 µM (inactive)
EKVX
  GI50: > 100 µM (inactive)
HOP-62
  GI50: > 100 µM (inactive)
Malme-3M
  GI50: > 100 µM (inactive)
MDA-MB-435
  GI50: > 100 µM (inactive)
UO-31
  GI50: > 100 µM (inactive)
CAKI-1
  GI50: > 100 µM (inactive)
T47D
  GI50: > 100 µM (inactive)
COLO 205
  GI50: > 100 µM (inactive)
NCI-H522
  GI50: > 100 µM (inactive)
SK-MEL-28
  GI50: > 100 µM (inactive)
OVCAR-3
  GI50: > 100 µM (inactive)
K562
  GI50: 35.9 µM (inactive)
HT-29
  GI50: > 100 µM (inactive)
HCT-15
  GI50: > 100 µM
PC-3
  GI50: > 100 µM (inactive)
MDA-N
  GI50: > 100 µM (inactive)
NCI-H23
  GI50: > 100 µM (inactive)
ACHN
  GI50: > 100 µM (inactive)
SN12C
  GI50: > 100 µM (inactive)
BT-549
  GI50: > 100 µM (inactive)
HCT-116
  GI50: > 100 µM (inactive)
MOLT-4
  GI50: > 100 µM (inactive)
